US12390472B2 (SUZHOU SINOVENT PHARMACEUTICALS CO., LTD., priority 2018, dated 2025)
Like-named read-outs stand apart in the source and are kept apart here.

Key:
[1] = system: WSU-DLCL2 cells; test: Experiment on WSU-DLCL2 cell proliferation (Calcein-AM); format: cell-based
Description: WSU-DLCL2 cells were plated in a 96-well plate and 100 uL of cells (a density of 1×10^5 cells/mL) and 50 uL of compound stock at 3-fold concentration was added to each well, and the final volume was 150 uL/well. After 6 days of culturing, on day 7, the cells in the well plate were mixed well by pipetting, and 50 uL of the cell suspension was pipetted to be tested for cell viability using Calcein-AM. 50 uL of the cell suspension was added to a 96-well plate coated by poly-D-Lysine, and then 50 uL of HBSS containing 2 uM Calcein-AM was added to make the final concentration of Calcein-AM 1 uM. After incubation for 10 min at room temperature, the cells were rapidly centrifuged to be deposited on the bottom of the plate. The cells were cultured in the incubator for another 40 min and then the plate was read on Acumen.
The remaining cells were diluted and then plated in a 96-well plate, and 100 uL of cells and 50 uL of a compound at 3-fold concentration were added to each well for further culturing until day 14, and the cell viability was detected as described above. The IC50 was calculated.

[2] = system: Pfeiffer cells; test: Experiment on Pfeiffer cell proliferation (CellTiter-Glo); format: cell-based, human
Description: 90 uL of cells were added to each well of a 96-well plate at 12000 cells/well, and cell-free culture medium was added to blank control wells. The plate was incubated overnight in an incubator at 37° C., 5% CO2 and 100% relative humidity. The compounds were diluted from highest to lowest concentration gradient with DMSO to make stock solutions at 400-fold and 10-fold concentration. 10 μL of 10× compound working solution was added to the cell culture plate, and the total concentration of the compound was detected from 10 μM, 9 concentration points in total, and 3-fold serial dilution was performed. 10 μL of DMSO-cell culture medium mixture solution was added to the vehicle control wells and blank control wells. The final concentration of DMSO was 0.25%. The plate was put back in the incubator for another 7 days of culturing.
The cell culture plate cultured for 7 days was taken out of the incubator, and the suspended cells in the 96-well plate were mixed well by pipetting multiple times. 74 uL of fresh cell culture medium was added to a new 96-well plate, and 16 uL of cell suspension was pipetted from the 96-well plate with cells mixed well by pipetting into the new 96-well plate to bring the total volume to 90 uL. Cells in the new 96-well plate were treated with the compound. The new 96-well plate was put back in the incubator for another 7 days of culturing, and then cell viability was detected directly.
84 μL of cell suspension was taken from the cell culture plate for cell viability detection.
CellTiter-Glo buffer and substrate were thawed and balanced to room temperature. The CellTiter-Glo buffer was added to a bottle of CellTiter-Glo substrate to dissolve the substrate, thereby preparing CellTiter-Glo working solution. The bottle was subjected to slow vortex shaking to completely dissolve the substrate. The cell culture plate was taken out and balanced to room temperature for 30 min. 50 μL of CellTiter-Glo working solution was added to each well. The cell plate was wrapped with aluminum foil to keep out of light. The plate was shaken on an orbital shaker for 2 min to induce cell lysis. The plate was placed at room temperature for 10 min to stabilize the luminescence signals. The luminescence signals were detected on 2104 En Vision plate reader.
Inhibition rates of compounds at different concentrations were calculated in Excel, followed by plotting the inhibition curves and calculating relevant parameters including minimum (%), maximum (%), and absolute IC50 using GraphPad Prism software.

[3] = In vivo pharmacokinetic properties in mice; design: species or system mouse; Cmax: unit: ng/mL; details: male ICR mice; for F: intragastric 250 mg/kg vs intravenous 5 mg/kg; for AUC0-∞ / CL / Cmax / T1/2 / Tmax / AUC(0-inf) / half-life: single intravenous 5 mg/kg and intragastric 250 mg/kg study
Description: Male ICR mice were divided into different groups with 3 mice in each group, and single intravenous injection and single intragastric administration were conducted respectively. The compounds were formulated with 10% DMSO/90% (20% Captisol) to reach an appropriate concentration and then administered intravenously at 5 mg/kg. The compounds were formulated with 0.5% CMC-Na/0.1% Tween 80 (pH=3-4) to reach an appropriate concentration and then administered intragastrically at 250 mg/kg. Blood was taken at 5 min, 15 min, 30 min, 1 h, 2 h, 4 h, 6 h, 8 h and 24 h after administration, and then subjected to EDTA-K2 anticoagulation. The concentration of the compound in the plasma was quantitatively detected by an LC-MS/MS method.

[4] = system: subcutaneous xenograft tumor model of human B lymphocyte Pfeiffer; test: In vivo efficacy in subcutaneous xenograft tumor model of human B lymphocyte Pfeiffer; design: species or system mouse; details: SCID Beige mice, tumor volume 21 days after administration
Description: Human B lymphocyte strain Pfeiffer was cultured in vitro, in a monolayer way, in a RPMI-1640 medium containing 10% fetal bovine serum, 100 U/mL penicillin and 100 μg/mL streptomycin in an incubator at 37° C./5% CO2. Conventional medium refreshment and subculturing were carried out twice a week, and cells in logarithmic growth phase were collected and used for tumor inoculation after being counted.
Female SCID Beige mice, aged 6-8 weeks and weighed 18-22 g were used in the experiment. The experiment started after 7-day adaptive feed.
Each mouse was inoculated subcutaneously with 10×10^6 Pfeiffer cells in a volume of 0.2 mL in the right side of the neck. The cells were suspended with PBS and matrigel (volume ratio 1:1). After the average tumor volume reached 130 mm^3, the mice were divided into groups with 8 mice per group for administration. The administration volume was 10 uL/g and the dose was 100 mg/kg if there's no special labeling ((p.o. administration, QD, continuous administration for 21 days).
Animal body weights were measured twice weekly and animal mortality and side effects within each group were recorded based on the number of animals in the group.
The experimental indices were to investigate whether tumor growth was inhibited or delayed or the tumor was cured. Tumor diameters were measured twice weekly using a vernier caliper. The tumor volume was calculated according to the following formula: V=0.5 a×b^2, where a and b represent the long diameter and short diameter of the tumor, respectively. The tumor growth inhibitions (TGIs) of the compounds were evaluated by T/C (%). The percentage value of T/C (%) is an index for reflecting the tumor growth inhibition, where T and C represent the average tumor volume of the administration group and the control group, respectively, at a certain day.
The tumor growth inhibition rate was calculated according to the following formula: TGI (%)=(1−(Ti−T0)/(Vi−V0))×100, where Ti is the average tumor volume of a certain administration group on a certain day, T0 is the average tumor volume of the administration group at the start of administration, Vi is the average tumor volume of the vehicle control group on a certain day (same day as Ti) and V0 is the average tumor volume of the vehicle control group at the start of administration.
Relative tumor volumes at each time point for each group were statistically analyzed and differences among groups were assessed based on the data. The statistical method used for testing was one-way ANOVA.

[5] = target: EZH2 enzyme complex (Homo sapiens (Human), UniProt Q15910); test: Test on EZH2 inhibitory activity (TR-FRET); format: biochemical; details: EZH2 enzyme complex 25 ng/uL, histone H3 peptide 4 uM, SAM 2 uM, 300 min; read-out: IC50 of EZH2 inhibition
Sequence of EZH2 enzyme complex (Q15910 whole entry): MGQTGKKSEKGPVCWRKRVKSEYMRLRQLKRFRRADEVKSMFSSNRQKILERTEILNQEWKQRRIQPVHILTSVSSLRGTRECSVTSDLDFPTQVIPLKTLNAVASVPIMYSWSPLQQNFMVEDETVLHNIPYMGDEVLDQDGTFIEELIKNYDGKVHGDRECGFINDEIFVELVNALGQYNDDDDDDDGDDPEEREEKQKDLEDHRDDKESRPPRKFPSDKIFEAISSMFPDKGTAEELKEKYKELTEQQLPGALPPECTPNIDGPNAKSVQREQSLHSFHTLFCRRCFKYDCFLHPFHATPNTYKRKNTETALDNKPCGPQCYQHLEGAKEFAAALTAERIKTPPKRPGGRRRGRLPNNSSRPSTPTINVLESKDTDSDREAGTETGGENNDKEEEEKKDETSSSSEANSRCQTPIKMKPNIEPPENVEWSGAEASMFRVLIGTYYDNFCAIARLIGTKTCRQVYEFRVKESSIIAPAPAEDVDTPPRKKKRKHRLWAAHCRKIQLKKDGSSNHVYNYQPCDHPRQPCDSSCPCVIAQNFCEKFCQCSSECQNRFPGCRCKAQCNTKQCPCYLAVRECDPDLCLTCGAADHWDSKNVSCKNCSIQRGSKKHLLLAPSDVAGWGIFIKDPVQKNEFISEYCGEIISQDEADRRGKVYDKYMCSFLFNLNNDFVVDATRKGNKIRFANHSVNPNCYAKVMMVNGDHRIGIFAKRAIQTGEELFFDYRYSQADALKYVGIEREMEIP
Sequence of EZH2 enzyme complex (O75530 whole entry partner): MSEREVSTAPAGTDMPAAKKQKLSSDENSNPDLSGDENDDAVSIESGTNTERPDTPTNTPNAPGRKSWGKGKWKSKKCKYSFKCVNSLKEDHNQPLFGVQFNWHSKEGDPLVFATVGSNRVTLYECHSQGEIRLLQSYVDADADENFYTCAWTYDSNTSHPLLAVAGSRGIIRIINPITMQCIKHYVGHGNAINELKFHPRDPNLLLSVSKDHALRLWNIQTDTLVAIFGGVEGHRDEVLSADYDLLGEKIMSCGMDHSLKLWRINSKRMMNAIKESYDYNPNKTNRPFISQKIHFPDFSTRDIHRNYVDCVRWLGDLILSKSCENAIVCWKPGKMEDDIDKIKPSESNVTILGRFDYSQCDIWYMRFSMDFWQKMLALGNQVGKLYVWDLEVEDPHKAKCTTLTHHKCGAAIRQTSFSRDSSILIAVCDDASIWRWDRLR
Sequence of EZH2 enzyme complex (Q15022 whole entry partner): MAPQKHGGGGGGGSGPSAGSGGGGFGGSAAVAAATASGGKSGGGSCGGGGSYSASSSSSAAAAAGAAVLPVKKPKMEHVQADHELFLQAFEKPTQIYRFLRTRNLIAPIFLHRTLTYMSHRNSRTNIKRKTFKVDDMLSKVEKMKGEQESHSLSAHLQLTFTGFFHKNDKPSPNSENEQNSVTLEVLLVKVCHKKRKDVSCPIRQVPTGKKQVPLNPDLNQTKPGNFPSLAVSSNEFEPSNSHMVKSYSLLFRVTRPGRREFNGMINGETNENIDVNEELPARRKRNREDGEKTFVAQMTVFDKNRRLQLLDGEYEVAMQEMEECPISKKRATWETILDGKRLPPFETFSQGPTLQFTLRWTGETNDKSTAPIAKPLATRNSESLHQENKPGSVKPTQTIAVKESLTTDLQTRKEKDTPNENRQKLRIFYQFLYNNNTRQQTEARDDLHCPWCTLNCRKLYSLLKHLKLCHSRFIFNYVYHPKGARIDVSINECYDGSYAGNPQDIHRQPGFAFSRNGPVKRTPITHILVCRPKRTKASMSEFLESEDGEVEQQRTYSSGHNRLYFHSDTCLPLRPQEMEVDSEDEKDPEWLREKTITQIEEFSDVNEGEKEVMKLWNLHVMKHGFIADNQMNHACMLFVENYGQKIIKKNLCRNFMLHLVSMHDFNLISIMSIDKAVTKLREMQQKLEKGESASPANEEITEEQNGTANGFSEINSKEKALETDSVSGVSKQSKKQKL

[6] = target: EZH2 (Y641N) (Homo sapiens (Human), UniProt Q15910, Y641N); test: Test on EZH2 (Y641N) inhibitory activity; format: biochemical
Sequence of EZH2 (Y641N) (Q15910 whole entry Y641N): as the sequence (Q15910 whole entry) above, with Y641N counted along it
Sequence of EZH2 (Y641N) (O75530 whole entry partner): as the sequence (O75530 whole entry partner) above
Sequence of EZH2 (Y641N) (Q15022 whole entry partner): as the sequence (Q15022 whole entry partner) above
Description: (§1) Compounds at different concentrations were dissolved in 100% DMSO and transferred to test plates, and the final concentration of DMSO was 1%. Enzyme solution and substrate SAM solution were prepared with 1-fold reaction buffer (optimized Tris buffer). 5 uL of enzyme solution was added to the test plate and wells only added with 5 uL of reaction buffer were used as negative control wells. After incubation at room temperature for 15 min, the plate was added with 5 uL of substrate solution per well to initiate the reaction, and then incubated at room temperature for 60 min. 5 uL of receptor solution was added and the plate was incubated away from light at room temperature for 60 min. 10 uL of donor solution was added and the plate was incubated away from light at room temperature for 30 min. The endpoint values were read on the Envision and the IC50 was calculated.
(§2) Data were fitted by GraphPad Prism 5 software and inhibition rate was calculated according to equation (1) Inh %=(Max−Signal)/(Max−Min)×100 (1)
(§3) IC50 was calculated using equation (2) Y=Bottom+(Top−Bottom)/(1+10^((Log IC50−X)×Hill Slope))
(§4) Y: inhibition rate; X: concentration of the compound

[7] = target: EZH2 (Y641F) (Homo sapiens (Human), UniProt Q15910, Y641F); test: Test on EZH2 (Y641F) inhibitory activity; format: biochemical
Sequence of EZH2 (Y641F) (Q15910 whole entry Y641F): as the sequence (Q15910 whole entry) above, with Y641F counted along it
Sequence of EZH2 (Y641F) (O75530 whole entry partner): as the sequence (O75530 whole entry partner) above
Sequence of EZH2 (Y641F) (Q15022 whole entry partner): as the sequence (Q15022 whole entry partner) above
Description: as §1, §2, §3, §4

[8] = target: EZH2 (wt) (Homo sapiens (Human), UniProt Q15910); test: Test on EZH2 (wt) inhibitory activity ([3H]-SAM Flashplate); format: biochemical
Sequence of EZH2 (wt) (Q15910 whole entry): as the sequence (Q15910 whole entry) above
Sequence of EZH2 (wt) (O75530 whole entry partner): as the sequence (O75530 whole entry partner) above
Sequence of EZH2 (wt) (Q15022 whole entry partner): as the sequence (Q15022 whole entry partner) above
Description: Protocols Compounds at different concentrations were dissolved in 100% DMSO and transferred to test plates, and the final concentration of DMSO was 1%. The enzyme solution and the mixture solution of peptide and [3H]-SAM were prepared with 1-fold reaction buffer. 10 uL of enzyme solution was added to the test plate and wells only added with 10 uL of reaction buffer were used as negative control wells. After incubation at room temperature for 15 min, the plate was added with 10 uL of the mixture solution of peptide and [3H]-SAM per well to initiate the reaction which lasts for 60 min at room temperature. The pre-cooled SAM was added to 1-fold reaction buffer to prepare a stop buffer. The reaction was stopped by adding 10 uL of stop buffer per well. 25 uL of solution was transferred from the reaction plate to Flashplate and incubated at room temperature for at least 1 h. The Flashplate was washed 3 times with dH2O+0.1% Tween-20. The plate was read by Microbeta.
as §2, §3, §4

[9] = WSU-DLCL2, Day 7, read-out: IC50 WSU-DLCL2 proliferation Day 7
[10] = WSU-DLCL2, Day 14, read-out: IC50 WSU-DLCL2 proliferation Day 14
[11] = Day 7, read-out: IC50 Pfeiffer proliferation Day 7
[12] = Day 14, read-out: IC50 Pfeiffer proliferation Day 14
[13] = Homo sapiens, WSUDLCL2, 168 h, WSU-DLCL2, Day 7, read-out: IC50 WSU-DLCL2 proliferation Day 7
[14] = Homo sapiens, WSUDLCL2, 336 h, WSU-DLCL2, Day 14, read-out: IC50 WSU-DLCL2 proliferation Day 14
[15] = Homo sapiens, 168 h, Day 7, read-out: IC50 Pfeiffer proliferation Day 7
[16] = Homo sapiens, 336 h, Day 14, read-out: IC50 Pfeiffer proliferation Day 14
[17] = mouse, plasma, oral, read-out: Cmax
[18] = mouse, plasma, oral, read-out: Tmax

CCN(c1cc(OC2CNC2)cc(C(=O)NCc2c(C)cc(C)[nH]c2=O)c1C)C1CCOCC1 [EPZ195, reference compound]
IC50 [1, 9]: 1430 nM | IC50 [1, 10]: 281 nM | IC50 [2, 11]: 385 nM | IC50 [2, 12]: 127 nM | F [3]: 2.64% | AUC0-∞ [3]: 3071 ± 486 ng·h/mL | CL [3]: 36.5 ± 6.21 mL/min/lg | Cmax [3]: 945 ± 283 ng/mL | T1/2 [3]: 5.12 ± 0.89 h | Tmax [3]: 1.42 ± 1.01 h

CCN(c1cc(OC2CN(C)C2)cc(C(=O)NCc2c(C)cc(C)[nH]c2=O)c1C)C1CCC(N(C)C)CC1 (stereo not drawn) [EPZ349, reference compound]
IC50 [1, 9]: 563 nM | IC50 [1, 10]: 110 nM | IC50 [2, 11]: 104 nM | IC50 [2, 12]: 33 nM | F [3]: 12.8% | AUC0-∞ [3]: 3918 ± 1710 ng·h/mL | CL [3]: 149 ± 57.0 mL/min/lg | Cmax [3]: 1485 ± 860 ng/mL | T1/2 [3]: 2.19 ± 1.32 h | Tmax [3]: 0.83 ± 0.29 h | TGI ([4]; 100 mg/kg p.o. QD 21 days): 22.39%

CCN(c1cc(O[C@H]2C[C@H](N3CCOCC3)C2)cc(C(=O)NCc2c(C)cc(C)[nH]c2=O)c1C)C1CCC(F)(F)CC1 [Example 63, 3-((4,4-difluorocyclohexyl)(ethyl)amino)-N-((4,6-dimethyl-2-oxo-1,2-dihydropyridin-3-yl)methyl)-2-methyl-5-(trans-3-morpholinocyclobutoxy)benzamide]
IC50 [5]: 10 to 100 nM | TGI ([4]; 100 mg/kg p.o. QD 21 days): 53.67%

CCN(c1cc(O[C@H]2C[C@H](N3CCCCC3)C2)cc(C(=O)NCc2c(C)cc(C)[nH]c2=O)c1C)C1CCC(F)(F)CC1 [Example 68, 3-((4,4-difluorocyclohexyl)(ethyl)amino)-N-((4,6-dimethyl-2-oxo-1,2-dihydropyridin-3-yl)methyl)-2-methyl-5-(trans-3-(piperidin-1-yl)cyclobutoxy)benzamide]
IC50 [1, 13]: 49 nM | IC50 [1, 14]: 12 nM | IC50 [2, 15]: 13 nM | IC50 [2, 16]: 4.6 nM | F [3]: 56.5% | CL [3]: 27.1 ± 5.94 mL/min/lg | AUC(0-inf) ([3]; mouse, plasma, oral): 89500 ng·h/mL | Cmax [3, 17]: 9250 ± 181 ng/mL | Tmax [3, 18]: 1.33 ± 0.58 h | half-life ([3]; mouse, plasma): 626 ± 512 min | TGI ([4]; 50 mg/kg p.o. QD 21 days): 94.28%

CCN(c1cc(O[C@H]2C[C@H](N3CCCCC3)C2)cc(C(=O)NCc2c(OC)cc(C)[nH]c2=O)c1C)C1CCC(F)(F)CC1 [Example 91, 3-((4,4-difluorocyclohexyl)(ethyl)amino)-N-((4-methoxy-6-methyl-2-oxo-1,2-dihydropyridin-3-yl)methyl)-2-methyl-5-(trans-3-(piperidin-1-yl)cyclobutoxy)benzamide]
IC50 [1, 13]: 24 nM | IC50 [1, 14]: 6 nM | IC50 [2, 15]: 6 nM | IC50 [2, 16]: 2 nM | F [3]: 82.3% | CL [3]: 66.9 ± 3.70 mL/min/lg | AUC(0-inf) ([3]; mouse, plasma, oral): 51600 ng·h/mL | Cmax [3, 17]: 9350 ± 1900 ng/mL | Tmax [3, 18]: 1.67 ± 0.58 h | half-life ([3]; mouse, plasma): 463 ± 188 min | TGI ([4]; 50 mg/kg p.o. QD 21 days): 89.39%

CCN(c1cc(O[C@H]2C[C@H](N3CCCCC3)C2)cc(C(=O)NCc2c(C)cc(C)[nH]c2=O)c1C)C1CCOCC1 [Example 92]
IC50 [6]: < 0.51 nM | IC50 [7]: < 0.51 nM | IC50 [8]: 0.52 nM | F [3]: 48.6% | CL [3]: 80.84 ± 5.78 mL/min/lg | AUC(0-inf) ([3]; mouse, plasma, oral): 25200 ± 4540 ng·h/mL | Cmax [3, 17]: 9440 ± 1000 ng/mL | Tmax [3, 18]: 0.58 ± 0.38 h | half-life ([3]; mouse, plasma): 122 ± 68.4 min

CCN(c1cc(O[C@H]2C[C@H](N3CCCCC3)C2)cc(C(=O)NCc2c(O)cc(C)[nH]c2=O)c1C)C1CCC(F)(F)CC1 [Example 94, 3-((4,4-difluorocyclohexyl)(ethyl)amino)-N-((4-hydroxy-6-methyl-2-oxo-1,2-dihydropyridin-3-yl)methyl)-2-methyl-5-(trans-3-(piperidin-1-yl)cyclobutoxy)benzamide]
IC50 [6]: 100 nM | IC50 [7]: 123 nM | IC50 [8]: 145 nM
